The values below come from ChEMBL document CHEMBL1255557, “Heterobiaryl and heterobiaryl ether derived M5 positive allosteric modulators” (Bioorg Med Chem Lett, 2010).

Structures are written as SMILES. Activity calls are given as the source filed them. No cut-off for these calls is given here.

Data set [1] deals with T1, Muscarinic acetylcholine receptor M5 (Homo sapiens, UniProt P08912).
T1 sequence (P08912 whole entry): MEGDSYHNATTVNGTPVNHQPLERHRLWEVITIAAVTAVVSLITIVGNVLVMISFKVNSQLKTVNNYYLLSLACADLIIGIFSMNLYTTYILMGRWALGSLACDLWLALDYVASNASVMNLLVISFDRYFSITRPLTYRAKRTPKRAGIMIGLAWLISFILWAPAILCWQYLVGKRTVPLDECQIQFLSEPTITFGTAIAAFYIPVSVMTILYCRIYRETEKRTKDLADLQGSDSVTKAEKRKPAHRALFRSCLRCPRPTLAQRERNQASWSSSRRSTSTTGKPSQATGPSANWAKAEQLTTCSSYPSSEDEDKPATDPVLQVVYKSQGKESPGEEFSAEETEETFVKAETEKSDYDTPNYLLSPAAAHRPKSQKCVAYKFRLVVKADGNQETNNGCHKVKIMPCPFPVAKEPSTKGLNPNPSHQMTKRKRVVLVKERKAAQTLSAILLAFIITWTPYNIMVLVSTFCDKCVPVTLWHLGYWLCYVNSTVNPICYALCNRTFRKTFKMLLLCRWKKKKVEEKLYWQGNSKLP
Put plainly: Positive allosteric modulation of muscarinic M5 receptor expressed in CHO cells assessed as effect on acetylcholine-induced intracellular calcium mobilization after 1 hr by FLIPR assay. Type of data set: functional, cell-based. For orientation: Calcium assays in cells follow changes in intracellular calcium, usually with a dye or a luminescent sensor.

Data set [2] in a line: Partition coefficient, log P of the compound. Type of data set: physicochemical. As to conditions: octanol/water.
Data set [3] addresses T2, Muscarinic acetylcholine receptor M5 (Homo sapiens) (UniProt P08912).
T2 sequence (whole entry): T1 sequence (P08912 whole entry)
The data set is described as follows: Positive allosteric modulation of muscarinic M5 receptor expressed in CHO cells assessed as effect on acetylcholine-induced intracellular calcium mobilization after 1 hr by FLIPR assay relative to acetylcholine. Type of data set: functional, cell-based.

Data set [4] addresses T3, Muscarinic acetylcholine receptor M2 (Homo sapiens, UniProt P08172).
T3 sequence (P08172 whole entry): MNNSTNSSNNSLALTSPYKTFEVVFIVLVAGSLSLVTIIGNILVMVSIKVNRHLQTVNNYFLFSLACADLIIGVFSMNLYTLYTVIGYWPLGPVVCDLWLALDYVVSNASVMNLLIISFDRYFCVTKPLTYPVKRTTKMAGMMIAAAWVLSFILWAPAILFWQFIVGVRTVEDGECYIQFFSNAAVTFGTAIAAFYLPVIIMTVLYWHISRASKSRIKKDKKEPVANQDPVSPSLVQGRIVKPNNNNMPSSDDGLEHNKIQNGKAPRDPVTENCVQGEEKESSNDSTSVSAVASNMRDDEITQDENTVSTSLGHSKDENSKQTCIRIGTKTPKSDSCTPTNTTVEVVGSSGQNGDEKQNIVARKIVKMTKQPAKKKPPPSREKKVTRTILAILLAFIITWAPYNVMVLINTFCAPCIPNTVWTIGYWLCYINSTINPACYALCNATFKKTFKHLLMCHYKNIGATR
The data set is described as follows: Positive allosteric modulation of muscarinic M2 receptor expressed in CHO cells co-expressing Gqi5 assessed as effect on acetylcholine-induced intracellular calcium mobilization after 1 hr by FLIPR assay.

In data set [5] the target is T4, Muscarinic acetylcholine receptor M4 (Homo sapiens, UniProt P08173).
T4 sequence (P08173 whole entry): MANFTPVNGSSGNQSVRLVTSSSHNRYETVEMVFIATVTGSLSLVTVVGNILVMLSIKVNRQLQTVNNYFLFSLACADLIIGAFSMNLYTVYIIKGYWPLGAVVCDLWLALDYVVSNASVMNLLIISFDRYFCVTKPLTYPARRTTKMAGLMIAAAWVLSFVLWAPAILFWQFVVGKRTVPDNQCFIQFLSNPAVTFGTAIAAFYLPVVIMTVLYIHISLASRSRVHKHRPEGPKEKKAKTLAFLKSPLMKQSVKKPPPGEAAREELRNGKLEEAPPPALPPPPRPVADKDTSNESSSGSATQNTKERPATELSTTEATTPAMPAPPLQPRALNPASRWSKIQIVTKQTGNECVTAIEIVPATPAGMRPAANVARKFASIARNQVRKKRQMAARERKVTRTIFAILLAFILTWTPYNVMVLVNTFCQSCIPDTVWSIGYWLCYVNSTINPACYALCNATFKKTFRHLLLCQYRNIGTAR
Put plainly: Positive allosteric modulation of muscarinic M4 receptor expressed in CHO cells co-expressing Gqi5 assessed as effect on acetylcholine-induced intracellular calcium mobilization after 1 hr by FLIPR assay. The format is functional, cell-based.

Data set [6] deals with T2, Muscarinic acetylcholine receptor M5 (Homo sapiens). Put plainly: Positive allosteric modulation of muscarinic M5 receptor expressed in CHO cells assessed as potentiation of acetylcholine-induced intracellular calcium mobilization at 30 uM after 1 hr by FLIPR assay relative to acetylcholine. The format is functional, cell-based.
Data set [7] deals with Sodium-dependent noradrenaline transporter (Homo sapiens) (UniProt P23975). Put plainly: Inhibition of NET.
Data set [8] addresses Muscarinic acetylcholine receptor M3 (Homo sapiens) (UniProt P20309). The data set is described as follows: Positive allosteric modulation of muscarinic M3 receptor expressed in CHO cells assessed as potentiation of acetylcholine-induced intracellular calcium mobilization at 30 uM after 1 hr by FLIPR assay relative to acetylcholine. Type of data set: functional, cell-based.

Data set [9] has as its target T5, Muscarinic acetylcholine receptor M2 (Homo sapiens) (UniProt P08172).
T5 sequence (whole entry): T3 sequence (P08172 whole entry)
The data set is described as follows: Positive allosteric modulation of muscarinic M2 receptor expressed in CHO cells co-expressing Gqi5 assessed as potentiation of acetylcholine-induced intracellular calcium mobilization at 30 uM after 1 hr by FLIPR assay relative to acetylcholine. The format is functional, cell-based.

Data set [10] has as its target T6, Muscarinic acetylcholine receptor M1 (Homo sapiens) (UniProt P11229).
T6 sequence (whole entry): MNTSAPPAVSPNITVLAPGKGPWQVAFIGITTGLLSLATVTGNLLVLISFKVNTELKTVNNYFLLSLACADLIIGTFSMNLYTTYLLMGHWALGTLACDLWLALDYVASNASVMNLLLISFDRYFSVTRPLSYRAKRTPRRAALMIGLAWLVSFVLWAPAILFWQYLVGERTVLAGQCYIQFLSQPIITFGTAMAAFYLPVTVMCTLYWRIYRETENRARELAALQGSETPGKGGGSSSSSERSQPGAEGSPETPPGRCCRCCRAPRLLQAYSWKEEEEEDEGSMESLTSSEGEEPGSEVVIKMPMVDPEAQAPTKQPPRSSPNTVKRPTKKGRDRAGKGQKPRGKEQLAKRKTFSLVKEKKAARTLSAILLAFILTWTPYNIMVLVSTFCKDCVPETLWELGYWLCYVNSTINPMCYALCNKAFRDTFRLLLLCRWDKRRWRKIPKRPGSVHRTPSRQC
The data set is described as follows: Positive allosteric modulation of muscarinic M1 receptor expressed in CHO cells assessed as potentiation of acetylcholine-induced intracellular calcium mobilization at 30 uM after 1 hr by FLIPR assay relative to acetylcholine. The format is functional, cell-based.

The target of data set [11] is T7, Muscarinic acetylcholine receptor M4 (Homo sapiens) (UniProt P08173).
T7 sequence (whole entry): T4 sequence (P08173 whole entry)
The data set is described as follows: Positive allosteric modulation of muscarinic M4 receptor expressed in CHO cells co-expressing Gqi5 assessed as potentiation of acetylcholine-induced intracellular calcium mobilization at 30 uM after 1 hr by FLIPR assay relative to acetylcholine. The format is functional, cell-based.

Data set [12] has as its target Histamine H1 receptor (Homo sapiens) (UniProt P35367). The data set is described as follows: Inhibition of histamine H1 receptor.

Muscarinic acetylcholine receptor M3 (Homo sapiens), sequence (P20309 whole entry, looked up): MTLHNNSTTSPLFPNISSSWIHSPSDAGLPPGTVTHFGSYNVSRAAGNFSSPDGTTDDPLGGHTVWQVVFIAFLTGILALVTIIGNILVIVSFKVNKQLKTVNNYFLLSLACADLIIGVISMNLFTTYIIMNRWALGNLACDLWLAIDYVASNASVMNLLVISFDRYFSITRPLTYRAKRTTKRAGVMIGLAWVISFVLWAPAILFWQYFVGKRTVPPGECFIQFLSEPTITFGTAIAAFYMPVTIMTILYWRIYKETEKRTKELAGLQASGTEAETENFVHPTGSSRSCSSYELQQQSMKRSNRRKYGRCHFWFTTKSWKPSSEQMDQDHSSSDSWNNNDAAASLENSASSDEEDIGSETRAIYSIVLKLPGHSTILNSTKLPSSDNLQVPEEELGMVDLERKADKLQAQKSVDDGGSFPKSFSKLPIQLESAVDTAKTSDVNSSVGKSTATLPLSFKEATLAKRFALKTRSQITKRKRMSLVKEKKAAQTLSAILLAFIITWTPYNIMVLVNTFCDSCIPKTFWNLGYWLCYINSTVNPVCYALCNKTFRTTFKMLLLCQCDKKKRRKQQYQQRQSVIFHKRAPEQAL
Sodium-dependent noradrenaline transporter (Homo sapiens), sequence (P23975 whole entry): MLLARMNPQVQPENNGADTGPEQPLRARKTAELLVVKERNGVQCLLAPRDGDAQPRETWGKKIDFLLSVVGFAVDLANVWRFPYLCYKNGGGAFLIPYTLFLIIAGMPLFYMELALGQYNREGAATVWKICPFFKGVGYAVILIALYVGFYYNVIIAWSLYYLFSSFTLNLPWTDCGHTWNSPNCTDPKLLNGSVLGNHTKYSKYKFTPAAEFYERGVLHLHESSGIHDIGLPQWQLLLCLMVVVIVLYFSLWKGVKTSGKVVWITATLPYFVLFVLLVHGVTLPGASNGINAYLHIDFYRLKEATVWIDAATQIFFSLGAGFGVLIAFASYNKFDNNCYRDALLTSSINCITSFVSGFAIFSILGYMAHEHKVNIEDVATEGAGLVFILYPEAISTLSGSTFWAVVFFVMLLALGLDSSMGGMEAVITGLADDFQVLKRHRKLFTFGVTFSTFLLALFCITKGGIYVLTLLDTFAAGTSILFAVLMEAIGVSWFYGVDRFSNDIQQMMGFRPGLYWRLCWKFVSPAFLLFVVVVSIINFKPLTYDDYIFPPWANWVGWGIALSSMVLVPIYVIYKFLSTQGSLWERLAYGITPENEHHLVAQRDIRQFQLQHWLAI
Histamine H1 receptor (Homo sapiens), sequence (P35367 whole entry): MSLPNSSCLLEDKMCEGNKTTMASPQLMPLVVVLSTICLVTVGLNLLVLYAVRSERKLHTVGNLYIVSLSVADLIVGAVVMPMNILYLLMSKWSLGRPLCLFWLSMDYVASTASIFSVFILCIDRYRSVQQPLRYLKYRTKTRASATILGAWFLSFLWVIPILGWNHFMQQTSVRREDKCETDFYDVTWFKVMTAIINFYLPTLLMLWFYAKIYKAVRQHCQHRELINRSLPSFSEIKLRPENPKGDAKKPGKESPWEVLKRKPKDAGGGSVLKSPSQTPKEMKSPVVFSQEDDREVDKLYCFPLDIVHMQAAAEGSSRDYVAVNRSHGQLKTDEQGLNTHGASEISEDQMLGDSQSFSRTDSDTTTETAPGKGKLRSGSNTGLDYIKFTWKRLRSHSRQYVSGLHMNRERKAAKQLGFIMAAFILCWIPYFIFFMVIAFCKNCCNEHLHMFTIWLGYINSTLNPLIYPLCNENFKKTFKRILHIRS

Broadly, the EC50 is the concentration at which the effect is half-maximal. In general, logP refers to a log measure of how a compound divides between an organic and an aqueous phase. A high value points to a more lipophilic compound. By Emax is commonly meant the greatest response seen or fitted, relative to the assay's reference. For the compound `O=C1C(=O)N(Cc2ccc(-c3cccnc3)nc2)c2ccc(OC(F)(F)F)cc21`, the 50% effective concentration (EC50) in data set [1] came to 4 µM. The compound further registered a lipophilicity (logP) in [2] of 3. For the same compound, in [3], the Emax was found to be 53%.

`O=C1C(=O)N(Cc2ccc(Br)cc2)c2ccccc21`: the EC50 was 4.6 µM in data set [1], over 30 µM in data set [4] and over 30 µM in data set [5].

For the compound `O=C1C(=O)N(Cc2ccc(Oc3ccccc3)cc2)c2ccc(OC(F)(F)F)cc21`, the fold change (FC) in data set [6] is 5.

On to `O=C1C(=O)N(Cc2ccc3c(c2)OCO3)c2ccc(OC(F)(F)F)cc21`, for which the EC50 in data set [1] was found to be 3.2 µM. In addition, in data set [3], the maximal response (Emax) is 90%.

`O=C1C(=O)N(Cc2ccc(-c3ccccc3)cc2)c2ccc(OC(F)(F)F)cc21` returned a logP in data set [2] of 4.6. Moreover, in [6], the fold change (FC) was 10.

Regarding `O=C1C(=O)N(Cc2ccc(Oc3cccc(F)n3)cc2)c2ccc(OC(F)(F)F)cc21`, the EC50 in data set [1] was 1.5 µM. The inhibition result in data set [7] and in [12] was “Active” in each case. Besides, the outcome in data set [8], in data set [9], in data set [10] and in data set [11] was inactive. For the same compound, the fold change (FC) in data set [6] was determined as 6. Moreover, in data set [3], the Emax was 62%.

As to `O=C1C(=O)N(Cc2ccc(-c3ccccc3)cn2)c2ccc(OC(F)(F)F)cc21`, the EC50 in [1] came to 3.1 µM. Also, in data set [3], the Emax was 47%.

For `O=C1C(=O)N(Cc2ccc(-c3ccccc3)nc2)c2ccc(OC(F)(F)F)cc21`, in [1], the concentration giving a half-maximal response (EC50) was determined as 3.8 µM. Further, the outcome in data set [8], in data set [9], in data set [10] and in data set [11] was inactive. Moreover, the log partition coefficient (logP) in data set [2] came out at 3.6. In addition, the fold change (FC) in [6] came out at 14. In addition, the Emax in data set [3] was 76%.

Turning to `O=C1C(=O)N(Cc2ccc(Cl)nc2)c2ccc(OC(F)(F)F)cc21`, the EC50 in data set [1] turned out to be 2.4 µM. Moreover, the Emax in data set [3] turned out to be 80%.
